US20240279237A1, “FUSED BICYCLIC HETEROARYL COMPOUNDS USEFUL AS NLRP3 INHIBITORS” (Hoffmann-La Roche Inc., priority 2021, published 2024)
Counter-ions that a name gives are not always drawn.

target: T1, NLRP3 (Homo sapiens, UniProt Q96P20); assay: THP-1 Cells Pyroptosis Assay; format: cell-based; conditions: THP-1 cells with 1.0 μg/ml LPS; compound 3 hours; nigericin 5 μM 1 hr; resazurin readout
T1 construct: Seed THP-1 cells (25,000 cells/well) containing 1.0 μg/ml LPS in 40 μl of RPMI medium; host or cells: THP-1 cells
T1 sequence (Q96P20 whole entry): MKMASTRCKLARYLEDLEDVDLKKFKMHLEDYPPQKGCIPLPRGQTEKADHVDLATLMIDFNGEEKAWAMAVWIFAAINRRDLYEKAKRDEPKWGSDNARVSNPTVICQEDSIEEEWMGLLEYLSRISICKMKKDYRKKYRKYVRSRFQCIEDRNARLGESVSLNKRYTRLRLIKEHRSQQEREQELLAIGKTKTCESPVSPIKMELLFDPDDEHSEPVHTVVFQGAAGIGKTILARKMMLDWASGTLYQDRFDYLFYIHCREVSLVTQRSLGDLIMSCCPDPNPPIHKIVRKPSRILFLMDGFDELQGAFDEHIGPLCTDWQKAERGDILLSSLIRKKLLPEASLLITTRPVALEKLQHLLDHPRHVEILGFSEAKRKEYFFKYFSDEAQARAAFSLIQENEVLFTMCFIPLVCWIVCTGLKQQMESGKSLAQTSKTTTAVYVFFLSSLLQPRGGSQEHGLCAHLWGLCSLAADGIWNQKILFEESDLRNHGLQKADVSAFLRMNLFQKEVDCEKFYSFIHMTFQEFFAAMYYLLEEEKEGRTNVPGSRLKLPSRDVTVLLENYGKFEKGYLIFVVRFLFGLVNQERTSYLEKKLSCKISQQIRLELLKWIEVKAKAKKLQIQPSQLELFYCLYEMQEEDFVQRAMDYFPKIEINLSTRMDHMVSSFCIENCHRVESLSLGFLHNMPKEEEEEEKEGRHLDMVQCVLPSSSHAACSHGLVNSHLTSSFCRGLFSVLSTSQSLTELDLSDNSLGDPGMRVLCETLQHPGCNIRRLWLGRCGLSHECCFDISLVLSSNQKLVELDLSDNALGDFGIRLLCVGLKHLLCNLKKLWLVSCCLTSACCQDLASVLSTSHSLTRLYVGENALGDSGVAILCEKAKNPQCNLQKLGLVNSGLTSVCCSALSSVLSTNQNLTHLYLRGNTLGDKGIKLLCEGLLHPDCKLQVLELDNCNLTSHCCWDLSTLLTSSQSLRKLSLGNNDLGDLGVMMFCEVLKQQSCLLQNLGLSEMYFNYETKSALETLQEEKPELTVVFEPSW
Method: The cells were routinely passaged and grown to confluency (˜10^6 cells/ml). On the day of the experiment, THP-1 cells were harvested and resuspended into RPMI medium (without FBS). The cells were then counted and viability (>90%) checked by Trypan blue (Sigma #T8154). […] To this diluted cell solution was added LPS (Sigma #L4524) to give a 1 μg/ml Final Assay Concentration (FAC). 40 μl of the final preparation was aliquoted into each well of a 96-well plate. The plate thus prepared was used for compound screening.
The following method step-by-step assay was followed for compound screening. • 1. […] Incubate for 3 hours at 37° C., 5% CO2 • 4. Add 5 μl nigericin (Sigma #N7143) (FAC 5 μM) to all wells • 5. Incubate for 1 hr at 37° C., 5% CO2 • 6. At the end of the incubation period, spin plates at 300×g for 3 mins and remove supernatant • 7. Then add 50 μl of resazurin (Sigma #R7017) (FAC 100 μM resazurin in RPMI medium without FBS) and incubate plates for a further 1-2 hours at 37° C. and 5% CO2 • 8.

Molecule | IC50 [nM]
2-[2-[[(3R or 3S)-1-Ethyl-3-piperidyl]amino]-1H-imidazo[4,5-b]pyridin-5-yl]-3-methyl-5-(trifluoromethyl)phenol [Example 18A] | 4.1
Cc1cc(Cl)cc(O)c1-c1ccc2oc(N[C@@H]3CCCN(C4CCC4)C3)nc2n1 [Example 47, 5-Chloro-2-[2-[[(3R)-1-cyclobutyl-3-piperidyl]amino]oxazolo[4,5-b]pyridin-5-yl]-3-methyl-phenol] | 1.2
CN1CCCC(Nc2nc3nc(-c4c(O)cc(C(F)(F)F)cc4C(F)F)ccc3o2)C1 [Example 30, 3-(Difluoromethyl)-2-[2-[[(3R)-1-methyl-3-piperidyl]amino]oxazolo[4,5-b]pyridin-5-yl]-5-(trifluoromethyl)phenol;2,2,2-trifluoroacetic acid salt] | 4.5
Cc1cc(C#N)cc(O)c1-c1ccc2oc(N3CCC4CCN(C)CC43)nc2n1 (single isomer, unassigned) [Example 27B, 4-[2-[(3aR,7aS or 3aS,7aR)-6-methyl-3,3a,4,5,7,7a-hexahydro-2H-pyrrolo[2,3-c]pyridin-1-yl]oxazolo[4,5-b]pyridin-5-yl]-3-hydroxy-5-methyl-benzonitrile] | 2.7
CCN1CCCC(Nc2nc3nc(-c4c(C)cc(C(F)(F)F)cc4O)ccc3o2)C1 (racemic) [Example 1, (rac)-2-[2-[(1-Ethyl-3-piperidyl)amino]oxazolo[4,5-b]pyridin-5-yl]-3-methyl-5-(trifluoromethyl)phenol] | 1.9
Cc1cc(C(F)(F)F)cc(O)c1-c1ccc2oc(NC3CCOC3)nc2n1 (racemic) [Example 38, (rac)-3-Methyl-2-[2-(tetrahydrofuran-3-ylamino)oxazolo[4,5-b]pyridin-5-yl]-5-(trifluoromethyl)phenol] | 85.3
CCN1CCC[C@@H](Nc2nc3nc(-c4c(O)cc(C#N)cc4Cl)ccc3o2)C1 [Example 107, 3-Chloro-4-[2-[[(3R)-1-ethyl-3-piperidyl]amino]oxazolo[4,5-b]pyridin-5-yl]-5-hydroxy-benzonitrile;2,2,2-trifluoroacetic acid] | 8.8
Cc1cc(Cl)cc(O)c1-c1ccc2oc(N[C@@H]3CCCN(CC4CC(O)C4)C3)nc2n1 (stereo partly drawn) [Example 75, 5-Chloro-3-methyl-2-[2-[[(3R)-1-[(3-hydroxycyclobutyl)methyl]-3-piperidyl]amino]oxazolo-[4,5-b]pyridin-5-yl]phenol] | 20.8
Cc1cc(C(F)(F)F)cc(O)c1-c1ccc2oc(NC3CCCOC3)nc2n1 (racemic) [Example 11, (rac)-3-Methyl-2-[2-(tetrahydropyran-3-ylamino)oxazolo[4,5-b]pyridin-5-yl]-5-(trifluoromethyl)phenol] | 217
Cc1cc(Cl)cc(O)c1-c1ccc2oc(CC3CN(C(C)C)CCO3)nc2n1 (stereo not drawn) [Example 88, 5-Chloro-2-[2-[(4-isopropylmorpholin-2-yl)methyl]oxazolo[4,5-b]pyridin-5-yl]-3-methyl-phenol;formic acid] | 6
Cc1cc(S(C)(=O)=O)cc(O)c1-c1ccc2oc(N[C@@H]3CCCN(C)C3)nc2n1 [Example 89, 3-Methyl-2-[2-[[(3R)-1-methyl-3-piperidyl]amino]oxazolo[4,5-b]pyridin-5-yl]-5-methylsulfonyl-phenol;2,2,2-trifluoroacetic acid] | 536
Cc1cc(C(F)(F)F)cc(O)c1-c1ccc2[nH]c(C3CCCN3)nc2n1 (racemic) [Example 17, (rac)-3-Methyl-2-(2-(pyrrolidin-2-yl)-1H-imidazo[4,5-b]pyridin-5-yl)-5-(trifluoro-methyl)phenol] | 183
Cc1cc(C(F)(F)F)cc(O)c1-c1ccc2oc(N3CCOCC3CN(C)C)nc2n1 (racemic) [Example 2, (rac)-2-[2-[3-[(Dimethylamino)methyl]morpholin-4-yl]oxazolo[4,5-b]pyridin-5-yl]-3-methyl-5-(trifluoromethyl)phenol] | 17.4
Cc1cc(C(F)(F)F)cc(O)c1-c1cc(C(C)O)c2oc(N[C@@H]3CCCN(C)C3)nc2n1 (stereo partly drawn) [Example 106, 2-[7-(1-Hydroxyethyl)-2-[[(3R)-1-methyl-3-piperidyl]amino]oxazolo[4,5-b]pyridin-5-yl]-3-methyl-5-(trifluoromethyl)phenol] | 22
COCCCN1CCC[C@@H](Nc2nc3nc(-c4c(C)cc(Cl)cc4O)ccc3o2)C1 [Example 96, 5-Chloro-2-[2-[[(3R)-1-(3-methoxypropyl)-3-piperidyl]amino]oxazolo[4,5-b]pyridin-5-yl]-3-methyl-phenol] | 56.1
5-Chloro-2-[2-[[(3R)-1-ethyl-3-piperidyl]amino]oxazolo[4,5-b]pyridin-5-yl]-4-fluoro-3-methyl-phenol;2,2,2-trifluoroacetic acid salt [Example 22] | 5.4
Cc1cc(Cl)cc(O)c1-c1ccc2oc(N[C@@H]3C[C@H](O)CN(C)C3)nc2n1 [Example 49, (3S,5R)-5-[[5-(4-Chloro-2-hydroxy-6-methyl-phenyl)oxazolo[4,5-b]pyridin-2-yl]amino]-1-methyl-piperidin-3-ol] | 1.6
Cc1cc(Cl)cc(O)c1-c1ccc2oc(N[C@@H]3CCCN(CCC(F)F)C3)nc2n1 [Example 74, 5-Chloro-2-[2-[[(3R)-1-(3,3-difluoropropyl)-3-piperidyl]amino]oxazolo[4,5-b]pyridin-5-yl]-3-methyl-phenol] | 9.2
CNC1CCCC(Nc2nc3nc(-c4c(C)cc(C(F)(F)F)cc4O)ccc3o2)C1 (mixture of isomers) [Example 7, 3-Methyl-2-[2-[[3-(methylamino)cyclohexyl]amino]oxazolo[4,5-b]pyridin-5-yl]-5-(trifluoromethyl)phenol] | 82.1
CCN1CCC[C@@H](Nc2nc3nc(-c4c(C)cc(C(F)F)cc4O)ccc3o2)C1 [Example 122, 5-(Difluoromethyl)-2-[2-[[(3R)-1-ethyl-3-piperidyl]amino]oxazolo[4,5-b]pyridin-5-yl]-3-methyl-phenol;2,2,2-trifluoroacetic acid] | 1
Cc1cc(C(F)(F)F)cc(O)c1-c1ccc2oc(N[C@@H]3CCCN(C4CC(O)C4)C3)nc2n1 (stereo partly drawn) [Example 61, 2-[2-[[(3R)-1-(3-hydroxycyclobutyl)-3-piperidyl]amino]oxazolo[4,5-b]pyridin-5-yl]-3-methyl-5-(trifluoromethyl)phenol] | 39.4
CCN1CC[C@@H](F)[C@@H](Nc2nc3nc(-c4c(C)cc(Cl)cc4O)ccc3o2)C1 [Example 99A, 5-Chloro-2-[2-[[(3S,4R)-1-ethyl-4-fluoro-3-piperidyl]amino]oxazolo[4,5-b]pyridin-5-yl]-3-methyl-phenol] | 1.9
COCc1cc(Cl)cc(O)c1-c1ccc2oc(N[C@@H]3C[C@H](O)CN(C)C3)nc2n1 [Example 100, (3S,5R)-5-[[5-[4-Chloro-2-hydroxy-6-(methoxymethyl)phenyl]oxazolo[4,5-b]pyridin-2-yl]amino]-1-methyl-piperidin-3-ol] | 18.4
Cc1cc(C(F)(F)F)cc(O)c1-c1ccc2oc(N3CCNCC3)nc2n1 [Example 6, 3-Methyl-2-(2-piperazin-1-yloxazolo[4,5-b]pyridin-5-yl)-5-(trifluoromethyl)phenol formic acid salt] | 86.6
Cc1cc(C(F)(F)F)cc(O)c1-c1ccc2oc(N3CCO[C@@H]4CNC[C@H]43)nc2n1 [Example 64A, 2-[2-[(4aR,7aR)-3,4a,5,6,7,7a-Hexahydro-2H-pyrrolo[3,4-b][1,4]oxazin-4-yl]oxazolo[4,5-b]pyridin-5-yl]-3-methyl-5-(trifluoromethyl)phenol] | 1.7
Cc1cc(C#N)cc(O)c1-c1ccc2oc(N[C@H]3CCCN4CCC[C@@H]34)nc2n1 (single isomer, unassigned) [Example 139A, 4-[2-[[(8S,8aS)-1,2,3,5,6,7,8,8a-Octahydroindolizin-8-yl]amino]oxazolo[4,5-b]pyridin-5-yl]-3-hydroxy-5-methyl-benzonitrile or 4-[2-[[(8R,8aR)-1,2,3,5,6,7,8,8a-octahydroindolizin-8-yl]amino]oxazolo[4,5-b]pyridin-5-yl]-3-hydroxy-5-methyl-benzonitrile] | 3.7
Cc1cc(Cl)cc(O)c1-c1ccc2oc(NC3CCC(CO)N(C)C3)nc2n1 (stereo not drawn) [Example 87, 5-Chloro-2-[2-[[6-(hydroxymethyl)-1-methyl-3-piperidyl]amino]oxazolo[4,5-b]pyridin-5-yl]-3-methyl-phenol;2,2,2-trifluoroacetic acid] | 75.6
Cc1cc(Cl)cc(O)c1-c1ccc2oc(NC3CCC4CCCN4C3)nc2n1 (stereo not drawn) [Example 65, 2-[2-(1,2,3,5,6,7,8,8a-Octahydroindolizin-6-ylamino)oxazolo[4,5-b]pyridin-5-yl]-5-chloro-3-methyl-phenol] | 20.3
CCN1CCC[C@@H](Nc2nc3nc(-c4c(O)cccc4C#N)ccc3o2)C1 [Example 119, 2-[2-[[(3R)-1-Ethyl-3-piperidyl]amino]oxazolo[4,5-b]pyridin-5-yl]-3-hydroxy-benzonitrile] | 23
Cc1cc(Cl)cc(O)c1-c1ccc2oc(NCc3c[nH]cn3)nc2n1 [Example 67, 5-Chloro-2-[2-(1H-imidazol-5-ylmethylamino)oxazolo[4,5-b]pyridin-5-yl]-3-methyl-phenol; formic acid] | 290
